Results as given in ChEMBL document CHEMBL3593183, “Polycyclic Polyprenylated Xanthones from Symphonia globulifera: Isolation and Biomimetic Electrosynthesis” (J Nat Prod, 2015).

System: HCT-116
Assay: Cytotoxicity against human HCT116 cells after 72 hrs by MTS assay
Type: functional, cell-based
Conditions: HCT-116, 72 h

CC(C)=CCC[C@]1(C)[C@@H](CC=C(C)C)C[C@@]2(CC=C(C)C)C(=O)c3c(oc4cc(O)c(O)cc4c3=O)[C@]1(CC=C(C)C)C2=O
IC50: 8 µM

CC(C)=CCC[C@]1(C)[C@@H](CC=C(C)C)C[C@]2(CC=C(C)C)C(=O)[C@@]1(CC=C(C)C)C(=O)c1c2oc2cc(O)c(O)cc2c1=O
IC50: 3 µM
